Source: article PMC9783573, “Introduction of a SiFA Moiety into the D-Glutamate Chain of DOTA-PP-F11N Results in Radiohybrid-Based CCK-2R-Targeted Compounds with Improved Pharmacokinetics In Vivo” (Pharmaceuticals, 2022)
Non-standard residues stand in square brackets, D forms with d. Residues, ends and D or L forms follow the SMILES beside them. *: point of attachment. X1 = O=C(O)CN1CCN(CC(=O)O)CCN([C@H](CCC(=O)*)C(=O)O)CCN(CC(=O)O)CC1; Benzoyl(4-SiFtBu2) = CC(C)(C)[Si](F)(c1ccc(C(=O)*)cc1)C(C)(C)C; Nle = CCCC[C@H](N)C(=O)O; dDap = NC[C@@H](N)C(=O)O

Assays:
[1] = first patient studies; cited from earlier work
CCK-2R = biological target: T1, CCK-2R (Rattus norvegicus, UniProt P30553); assay: CCK-2R-mediated internalisation and total cell uptake on AR42J cells; format: cell-based; conditions: for Total cell uptake (%) / Internalisation Values (%): % of applied activity, AR42J cells, 37 °C, 0.25 pmol/well; for Internalisation Values (%): corrected for non-specific binding; for Internalisation Values (% of reference): % of the reference [177Lu]Lu-DOTA-PP-F11N
T1 construct: CCK-2R expressing rat pancreatic cancer cells AR42J (CLS GmbH, Eppelheim,; host or cells: AR42J rat pancreatic cancer cells
T1 sequence (P30553 1-452): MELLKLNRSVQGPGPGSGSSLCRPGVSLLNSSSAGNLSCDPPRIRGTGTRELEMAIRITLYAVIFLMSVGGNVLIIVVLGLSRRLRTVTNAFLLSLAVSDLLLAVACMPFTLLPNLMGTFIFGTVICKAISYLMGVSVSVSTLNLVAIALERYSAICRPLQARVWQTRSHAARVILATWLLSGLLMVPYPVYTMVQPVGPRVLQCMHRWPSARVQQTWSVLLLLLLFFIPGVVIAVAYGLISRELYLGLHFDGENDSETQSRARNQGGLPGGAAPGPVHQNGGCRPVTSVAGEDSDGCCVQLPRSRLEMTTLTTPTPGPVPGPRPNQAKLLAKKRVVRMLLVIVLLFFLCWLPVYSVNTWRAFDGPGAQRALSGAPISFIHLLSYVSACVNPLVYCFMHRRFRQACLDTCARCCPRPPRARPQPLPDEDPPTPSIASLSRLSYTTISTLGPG
Procedure: Figure 3 (a) CCK-2R-mediated internalisation ([…]) on AR42J cells as percent (%) of the applied activity (incubation at 37 °C for 1, 2, 4 and 6 h, RPMI 1640, 5 mM L-Gln, 5 mL non-essential amino acids (100×), 10% FCS + 5% BSA (v/v), 3.0 × 10^5 cells/mL/well). (b) CCK-2R mediated internalisation (% of the reference [^177Lu]Lu-DOTA-PP-F11N) of [^177Lu]Lu-CP04 (grey), [^177Lu]Lu-(R)-DOTAGA-rhCCK-9 (red) and [^177Lu]Lu-(R)-DOTAGA-rhCCK-16 (green) after incubation for 6 h.
Internalisation studies of the ^177Lu-labelled conjugates (0.3 pmol) were performed on AR42J cells (3.0 × 10^5 cells per 1 mL/well) at 37 °C for 1, 2, 4 and 6 h (n = 3). Data were corrected for non-specific binding (competition by 10^−4 M [^natLu]Lu-DOTA-PP-F11N).
Cell Culture. CCK-2R expressing rat pancreatic cancer cells AR42J (CLS GmbH, Eppelheim, Germany) were cultivated in monolayers in CELLSTAR ® cell culture flasks acquired from Greiner Bio-One GmbH (Frickenhausen, Germany) at 37 °C in a humidified atmosphere (5% CO2) using a HERAcell 150i-Incubator (Thermo Fisher Scientific Inc., Waltham, United States). As nutrient medium RPMI 1640 medium, supplemented with 5 mM L-Gln 5 mL non-essential amino acids (100×) and 10% FCS, was used. Furthermore, a Dulbecco’s PBS solution with 0.1% EDTA (v/v) was applied to detach the cells for cell passaging. The detached cells were counted using a Neubauer hemocytometer ( Paul Marienfeld, Lauda-Königshofen, Germany). In addition, all operations under sterile conditions were accomplished using a MSC-Advantage safety workbench (Thermo Fisher Scientific Inc., Waltham, United States). […]
Internalisation Studies. For the determination of the internalisation kinetics of the various peptides, AR42J cells (3.0 × 10^5 cells/well) were seeded into polylysine coated 24-well plates adding 1 mL of nutrient medium. Afterwards, the cells were incubated for 24 ± 2 h at 37 °C in a humidified atmosphere […]
On the day of the experiment, the medium was removed, and each well was washed with nutrient medium (300 µL). Afterwards 200 µL of nutrient medium, 25 µL of the 177Lu-labeled peptide (0.3 pmol, n = 6) and either 25 µL of nutrient medium for internali sation studies (n = 3) or 25 µL of [natLu]Lu-DOTA-PP-F11N ([…]) for competition studies (n = 3) were added. Thereafter, the assay was incubated for various time points (1, 2, 4and 6 h) at 37 °C in a humidified atmosphere (5% CO2). After incubation, the cells were put on ice for at least 1 min to stop internalisation kinetics and the supernatant was collected. Then, the cells were washed with an ice-cold nutrient medium (300 µL) and both fractions were unified. For the acid wash, 300 µL of an ice-cold glycine buffer ([…] lysis of the cells with NaOH (300 μL, 1 N) for 15 min, the respective wells were washed with NaOH (300 μL, 1 N) and both fractions were unified. The radioactivity of the supernatant, the acid wash and the lysed fractions were quantified using a γ-counter.

[2] = tested on: AR42J tumour-bearing CB17-SCID mice; assay: Biodistribution at 24 h p.i. in AR42J tumour-bearing CB17-SCID mice; format: in vivo; conditions: vs [177Lu]Lu-DOTA-PP-F11N
Procedure: Figure 4 Biodistribution of the reference compound, [^177Lu]Lu-DOTA-PP-F11N (blue), the α-linked [^177Lu]Lu-(R)-DOTAGA-rhCCK-9 (red) and the γ-linked [^177Lu]Lu-(R)-DOTAGA-rhCCK-16 (green) in selected organs (%ID/g) at 24 h p.i. in AR42J tumour-bearing CB17-SCID mice (100 pmol each, n = 4). Data is expressed as mean ± SD.
All animal experiments were conducted in accordance with general animal welfare regulations in Germany (German animal protection act, in the edition of the announcement, dated 18 May 2006, as amended by Article 280 of 19 June 2020, approval no. ROB-55.2-1-2532.Vet_02-18-109 by the General Administration of Upper Bavaria) and the institutional guidelines for the care and use of animals. CB17-SCID mice of both genders and aged 2–12 months (Charles River Laboratories International Inc., Sulzfeld, Germany) were allowed to acclimate at the in-house animal facility for at least one week prior to tumour cell inoculation was performed. Tumour xenografts were generated using AR42J cells (5.0 × 10^6 cells per 200 µL) suspended in a 1/1 mixture (v/v) of RPMI 1640 medium and Cultrex® Basement Membrane Matrix Type 3 (Trevigen, Gaithersburg, MD, USA). This suspension was inoculated subcutaneously onto the right shoulder and animals were used when tumour volume was >100 mm^3 (1–2 week after inoculation). Exclusion criteria for animals from an experiment were either weight loss higher than 20%, a tumour size above 1500 mm^3, an ulceration of the tumour, respiratory distress or a change of behaviour. None of these criteria applied to any animal from the experiment. Neither randomisation nor blinding was applied in the allocation of the experiments. Health status is SPF according to FELASA.
For biodistribution studies, the ^177Lu-labelled compound (approx. 2–3 MBq, 100 pmol) was injected into a lateral tail vein (n = 4) of anesthetised (2% isoflurane) AR42J tumour-bearing CB-17-SCID mice. At 24 h post-injection (p.i.), the mice were euthanised. Thereafter, the pertinent organs were removed, weighed and measured using a γ-counter.

Compound: CCCC[C@H](NC(=O)[C@H](Cc1c[nH]c2ccccc12)NC(=O)CNC(=O)[C@H](Cc1ccc(O)cc1)NC(=O)[C@H](C)NC(=O)[C@@H](CCC(=O)O)NC(=O)[C@@H](CCC(=O)O)NC(=O)[C@@H](CCC(=O)O)NC(=O)[C@@H](CCC(=O)O)NC(=O)[C@@H](CCC(=O)O)NC(=O)[C@@H](CCC(=O)O)NC(=O)CN1CCN(CC(=O)O)CCN(CC(=O)O)CCN(CC(=O)O)CC1)C(=O)N[C@@H](CC(=O)O)C(=O)N[C@@H](Cc1ccccc1)C(N)=O [[nat/177Lu]Lu-DOTA-PP-F11N, metal not drawn, reference compound]
- median (interquartile range) absorbed tumour dose [1]: 0.88 Gy/GBq
- Total cell uptake (%) (CCK-2R; 1 h): 7.03 ± 1.45%
- Internalisation Values (%) (CCK-2R; 1 h): 6.44 ± 0.32%
- Total cell uptake (%) (CCK-2R; 2 h): 10.6 ± 1.5%
- Internalisation Values (%) (CCK-2R; 2 h): 10.1 ± 0.4%
- Total cell uptake (%) (CCK-2R; 4 h): 18.5 ± 2.5%
- Internalisation Values (%) (CCK-2R; 4 h): 17.5 ± 1.0%
- Total cell uptake (%) (CCK-2R; 6 h): 23.5 ± 1.4%
- Internalisation Values (%) (CCK-2R; 6 h): 22.4 ± 0.6%

Compound: CCCC[C@H](NC(=O)[C@H](Cc1c[nH]c2ccccc12)NC(=O)CNC(=O)[C@H](Cc1ccc(O)cc1)NC(=O)[C@H](C)NC(=O)CC[C@@H](NC(=O)CC[C@@H](NC(=O)CC[C@@H](NC(=O)CC[C@@H](NC(=O)CC[C@@H](NC(=O)CC[C@@H](NC(=O)[C@@H](CNC(=O)c1ccc([Si](F)(C(C)(C)C)C(C)(C)C)cc1)NC(=O)CC[C@H](C(=O)O)N1CCN(CC(=O)O)CCN(CC(=O)O)CCN(CC(=O)O)CC1)C(=O)O)C(=O)O)C(=O)O)C(=O)O)C(=O)O)C(=O)O)C(=O)N[C@@H](CC(=O)O)C(=O)N[C@@H](Cc1ccccc1)C(N)=O [[nat/177Lu]Lu-(R)-DOTAGA-rhCCK-16, metal not drawn]
- fold higher activity levels in the tumour than the reference ligand [2]: 8 fold
- Total cell uptake (%) (CCK-2R; 1 h): 8.37 ± 0.07%
- Internalisation Values (%) (CCK-2R; 1 h): 7.63 ± 0.13%
- Total cell uptake (%) (CCK-2R; 2 h): 14.4 ± 1.3%
- Internalisation Values (%) (CCK-2R; 2 h): 14.0 ± 1.3%
- Total cell uptake (%) (CCK-2R; 4 h): 23.6 ± 2.8%
- Internalisation Values (%) (CCK-2R; 4 h): 23.2 ± 2.7%
- Total cell uptake (%) (CCK-2R; 6 h): 32.8 ± 2.3%
- Internalisation Values (%) (CCK-2R; 6 h): 32.2 ± 2.1%
- Internalisation Values (% of reference) (CCK-2R; 6 h): 135 ± 9 % of reference

Compound: CSCC[C@H](NC(=O)[C@H](Cc1c[nH]c2ccccc12)NC(=O)CNC(=O)[C@H](Cc1ccc(O)cc1)NC(=O)[C@H](C)NC(=O)[C@@H](CCC(=O)O)NC(=O)[C@@H](CCC(=O)O)NC(=O)[C@@H](CCC(=O)O)NC(=O)[C@@H](CCC(=O)O)NC(=O)[C@@H](CCC(=O)O)NC(=O)[C@@H](CCC(=O)O)NC(=O)CN1CCN(CC(=O)O)CCN(CC(=O)O)CCN(CC(=O)O)CC1)C(=O)N[C@@H](CC(=O)O)C(=O)N[C@@H](Cc1ccccc1)C(N)=O [[nat/177Lu]Lu-CP04, metal not drawn, reference compound]
- Total cell uptake (%) (CCK-2R; 1 h): 6.00 ± 0.42%
- Internalisation Values (%) (CCK-2R; 1 h): 5.16 ± 0.44%
- Total cell uptake (%) (CCK-2R; 2 h): 10.0 ± 0.4%
- Internalisation Values (%) (CCK-2R; 2 h): 9.33 ± 0.36%
- Total cell uptake (%) (CCK-2R; 4 h): 16.5 ± 0.9%
- Internalisation Values (%) (CCK-2R; 4 h): 15.4 ± 0.7%
- Internalisation Values (%) (CCK-2R; 6 h): 20.5 ± 0.5%
- Internalisation Values (% of reference) (CCK-2R; 6 h): 91.6 ± 2.4 % of reference

Compound: CCCC[C@H](NC(=O)[C@H](Cc1c[nH]c2ccccc12)NC(=O)CNC(=O)[C@H](Cc1ccc(O)cc1)NC(=O)[C@H](C)NC(=O)[C@@H](CCC(=O)O)NC(=O)[C@@H](CCC(=O)O)NC(=O)[C@@H](CCC(=O)O)NC(=O)[C@@H](CCC(=O)O)NC(=O)[C@@H](CCC(=O)O)NC(=O)[C@@H](CCC(=O)O)NC(=O)[C@@H](CCC(=O)O)NC(=O)[C@@H](CCC(=O)O)NC(=O)[C@@H](CNC(=O)c1ccc([Si](F)(C(C)(C)C)C(C)(C)C)cc1)NC(=O)CC[C@H](C(=O)O)N1CCN(CC(=O)O)CCN(CC(=O)O)CCN(CC(=O)O)CC1)C(=O)N[C@@H](CC(=O)O)C(=O)N[C@@H](Cc1ccccc1)C(N)=O [[nat/177Lu]Lu-(R)-DOTAGA-rhCCK-9, metal not drawn] (X1-[dDap](Benzoyl(4-SiFtBu2))[dE][dE][dE][dE][dE][dE][dE][dE]AYGW[Nle]DF-NH2)
- fold higher activity levels in the tumour than the reference ligand [2]: 3 fold
- Total cell uptake (%) (CCK-2R; 1 h): 2.25 ± 0.23%
- Internalisation Values (%) (CCK-2R; 1 h): 2.08 ± 0.12%
- Total cell uptake (%) (CCK-2R; 2 h): 3.46 ± 0.56%
- Internalisation Values (%) (CCK-2R; 2 h): 3.44 ± 0.55%
- Total cell uptake (%) (CCK-2R; 4 h): 8.31 ± 0.59%
- Internalisation Values (%) (CCK-2R; 4 h): 8.01 ± 0.53%
- Total cell uptake (%) (CCK-2R; 6 h): 13.4 ± 0.7%
- Internalisation Values (%) (CCK-2R; 6 h): 13.2 ± 0.5%
- Internalisation Values (% of reference) (CCK-2R; 6 h): 65.7 ± 2.5 % of reference
